Measured values published in patent publication US11161856B2 (H. Lundbeck A/S, priority 2017, dated 2021).

What was measured:
ABHD6 = target: T1, ABHD6 (Mus musculus, UniProt Q8R2Y0); experiment: In vitro competitive activity-based protein profiling, mouse brain proteome (ABHD6); format: biochemical; conditions: mouse brain proteome; concentration not given (μM)
T1 construct: Brain; from tissue; host or cells: mouse brain proteome
T1 sequence (Q8R2Y0 1-336): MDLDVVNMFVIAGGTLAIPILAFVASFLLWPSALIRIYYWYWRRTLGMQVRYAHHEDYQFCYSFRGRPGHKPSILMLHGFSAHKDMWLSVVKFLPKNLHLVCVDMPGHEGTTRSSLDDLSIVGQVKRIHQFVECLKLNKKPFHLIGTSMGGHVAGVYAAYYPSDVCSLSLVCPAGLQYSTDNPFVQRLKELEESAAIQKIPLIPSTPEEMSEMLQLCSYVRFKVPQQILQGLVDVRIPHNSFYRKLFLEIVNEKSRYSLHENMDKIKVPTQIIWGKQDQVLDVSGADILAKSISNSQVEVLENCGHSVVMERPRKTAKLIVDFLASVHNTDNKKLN
Description: [The source words this procedure for another target and reports this target under the same test.] In Vitro Competitive Activity-Based Protein Profiling.
Proteomes (human prefrontal cortex or cell membrane fractions) (50 μL, 1.0 mg/mL total protein concentration) were preincubated with varying concentrations of inhibitors at 37° C. After 30 min, FP-Rh or HT-01 (1.0 μL, 50 μM in DMSO) was added and the mixture was incubated for another 30 min at room temperature. Reactions were quenched with SDS loading buffer (15 μL-4×) and run on SDS-PAGE.

MGLL = target: T2, MGLL (Mus musculus, UniProt O35678); experiment: In vitro competitive activity-based protein profiling, mouse brain proteome (MGLL); format: biochemical; conditions: concentration not given (μM)
T2 construct: Brain; from tissue; host or cells: mouse brain proteome
T2 sequence (O35678 1-303): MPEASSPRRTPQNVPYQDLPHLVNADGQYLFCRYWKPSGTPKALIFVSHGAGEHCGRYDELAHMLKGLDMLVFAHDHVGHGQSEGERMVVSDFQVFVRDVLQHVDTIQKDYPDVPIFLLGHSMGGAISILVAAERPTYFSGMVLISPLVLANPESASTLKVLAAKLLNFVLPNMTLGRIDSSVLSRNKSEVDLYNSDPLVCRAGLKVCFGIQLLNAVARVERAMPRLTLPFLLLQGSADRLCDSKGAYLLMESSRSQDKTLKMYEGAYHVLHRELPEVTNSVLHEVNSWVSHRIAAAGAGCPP

With `O=C(OC(C(F)(F)F)C(F)(F)F)N1CCC2(CC1)CN(Cc1cccc(C(F)(F)F)c1)C2` [Example 89, 1,1,1,3,3,3-Hexafluoropropan-2-yl 2-(3-(trifluoromethyl)benzyl)-2,7-diazaspiro[3.5]nonane-7-carboxylate] the “% Inh ABHD6 Brain (Mouse, μM)” value (ABHD6) was “### (### is ≥75%)” and the “% Inh MGLL Brain (Mouse, μM)” value (MGLL) was “### (### is ≥75%)”.
With `O=C(OC(C(F)(F)F)C(F)(F)F)N1CCC2(CC1)CN(Cc1cccc(N3CCOCC3)c1)C2` [Example 90, 1,1,1,3,3,3-Hexafluoropropan-2-yl 2-(3-morpholinobenzyl)-2,7-diazaspiro[3,5]nonane-7-carboxylate] the “% Inh ABHD6 Brain (Mouse, μM)” value (ABHD6) was “### (### is ≥75%)” and the “% Inh MGLL Brain (Mouse, μM)” value (MGLL) was “### (### is ≥75%)”.
`Cc1ccccc1CN1CC2(CCN(C(=O)OC(C(F)(F)F)C(F)(F)F)CC2)C1` [Example 91, 1,1,1,3,3,3-Hexafluoropropan-2-yl 2-(2-methylbenzyl)-2,7-diazaspiro[3.5]nonane-7-carboxylate] was tested, and the “% Inh ABHD6 Brain (Mouse, μM)” value (ABHD6) was “### (### is ≥75%)” and the “% Inh MGLL Brain (Mouse, μM)” value (MGLL) was “### (### is ≥75%)”.
For `COc1ccccc1CN1CC2(CCN(C(=O)OC(C(F)(F)F)C(F)(F)F)CC2)C1` [Example 92, 1,1,1,3,3,3-Hexafluoropropan-2-yl 2-(2-methoxybenzyl)-2,7-diazaspiro[3.5]nonane-7-carboxylate], the “% Inh ABHD6 Brain (Mouse, μM)” value (ABHD6) was “### (### is ≥75%)” and the “% Inh MGLL Brain (Mouse, μM)” value (MGLL) was “### (### is ≥75%)”.
`O=C(OC(C(F)(F)F)C(F)(F)F)N1CCC2(CC1)CN(Cc1ccc(F)cc1)C2` [Example 93, 1,1,1,3,3,3-Hexafluoropropan-2-yl 2-(4-fluorobenzyl)-2,7-diazaspiro[3,5]nonane-7-carboxylate] was tested, and the “% Inh ABHD6 Brain (Mouse, μM)” value (ABHD6) was “### (### is ≥75%)” and the “% Inh MGLL Brain (Mouse, μM)” value (MGLL) was “### (### is ≥75%)”.
For `O=C(OC(C(F)(F)F)C(F)(F)F)N1CCC2(CC1)CN(Cc1cccc(N3CCCC3)c1)C2` [Example 94, 1,1,1,3,3,3-Hexafluoropropan-2-yl 2-(3-(pyrrolidin-1-yl)benzyl)-2,7-diazaspiro[3.5]nonane-7-carboxylate], the “% Inh ABHD6 Brain (Mouse, μM)” value (ABHD6) was “### (### is ≥75%)” and the “% Inh MGLL Brain (Mouse, μM)” value (MGLL) was “### (### is ≥75%)”.
In the case of `O=C(OC(C(F)(F)F)C(F)(F)F)N1CCC2(CC1)CN(Cc1ccccc1C(F)(F)F)C2` [Example 95, 1,1,1,3,3,3-Hexafluoropropan-2-yl 2-(2-(trifluoromethyl)benzyl)-2,7-diazaspiro[3.5]nonane-7-carboxylate], the “% Inh ABHD6 Brain (Mouse, μM)” value (ABHD6) is reported as “### (### is ≥75%)” and the “% Inh MGLL Brain (Mouse, μM)” value (MGLL) is reported as “### (### is ≥75%)”.
In the case of `O=C(OC(C(F)(F)F)C(F)(F)F)N1CCC2(CC1)CN(Cc1ccccc1N1CCOCC1)C2` [Example 96, 1,1,1,3,3,3-Hexafluoropropan-2-yl 2-(2-morpholinobenzyl)-2,7-diazaspiro[3,5]nonane-7-carboxylate], the “% Inh ABHD6 Brain (Mouse, μM)” value (ABHD6) is reported as “### (### is ≥75%)” and the “% Inh MGLL Brain (Mouse, μM)” value (MGLL) is reported as “### (### is ≥75%)”.
`O=C(OC(C(F)(F)F)C(F)(F)F)N1CCC2(CC1)CN(Cc1cccc(F)c1)C2` [Example 97, 1,1,1,3,3,3-Hexafluoropropan-2-yl 2-(3-fluorobenzyl)-2,7-diazaspiro[3.5]nonane-7-carboxylate] was tested, and the “% Inh ABHD6 Brain (Mouse, μM)” value (ABHD6) was “### (### is ≥75%)” and the “% Inh MGLL Brain (Mouse, μM)” value (MGLL) was “### (### is ≥75%)”.
`O=C(OC(C(F)(F)F)C(F)(F)F)N1CCC2(CC1)CN(Cc1ccccc1F)C2` [Example 98, 1,1,1,3,3,3-Hexafluoropropan-2-yl 2-(2-fluorobenzyl)-2,7-diazaspiro[3.5]nonane-7-carboxylate] was tested, and the “% Inh ABHD6 Brain (Mouse, μM)” value (ABHD6) was “### (### is ≥75%)” and the “% Inh MGLL Brain (Mouse, μM)” value (MGLL) was “### (### is ≥75%)”.
With `O=C(OC(C(F)(F)F)C(F)(F)F)N1CCC2(CC1)CN(Cc1ccc(C(F)(F)F)cc1N1CCCC1)C2` [Example 151, 1,1,1,3,3,3-Hexafluoropropan-2-yl 2-(2-(pyrrolidin-1-yl)-4-(trifluoromethyl)benzyl)-2,7-diazaspiro[3.5]nonane-7-carboxylate] the “% Inh ABHD6 Brain (Mouse, μM)” value (ABHD6) was “### (### is ≥75%)” and the “% Inh MGLL Brain (Mouse, μM)” value (MGLL) was “### (### is ≥75%)”.
